Results on 1 compound are retold here after patent publication US20130183239A1, “ISOTOPIC CARBON CHOLINE ANALOGS” (IMPERIAL COLLEGE, priority 2010, published 2013).

Structures are written as SMILES.

For data set [1] the following is noted: mouse, in vivo. On the procedure:
Metabolite analysis of tissues including liver, kidney and tumor by HPLC was also accomplished. […] Choline and its metabolites lack any UV chromophore to permit presentation of chromatograms of the cold unlabelled compound simultaneously with the radioactivity chromatograms.
Liver, kidney, and tumor samples were obtained at 30 min. All samples were snap-frozen in liquid nitrogen. For analysis, samples were thawed and kept at 4° C. immediately before use. To ˜0.2 mL plasma was added ice-cold methanol (1.5 mL). The mixture was then centrifuged (3 min, 15,493×g, 4jC). The supernatant was evaporated to dryness using a rotary evaporator (Heidoloph Instruments) at a bath temperature of 40° C. The residue was suspended in mobile phase (1.1 mL), clarified (0.2 Am filter), and analyzed by HPLC. Liver, kidney, and tumor samples were homogenized in ice-cold methanol (1.5 mL) using an IKA Ultra-Turrax T-25 homogenizer and subsequently treated as per plasma samples (above). All samples were analyzed by radio-HPLC on an Agilent 1100 series HPLC system (Agilent Technologies) equipped with a γ-RAM Model 3 γ-detector (IN/US Systems) and Laura 3 software (Lablogic). The stationary phase comprised a Waters μBondapak C18 reverse-phase column (300×7.8 mm) (Waters, Milford, Mass., USA). Samples were analyzed using a mobile phase comprising solvent A (acetonitrile/water/ethanol/acetic acid/1.0 mol/L ammonium acetate/0.1 mol/L sodium phosphate; 800/127/68/2/3/10) and solvent B (acetonitrile/water/ethanol/acetic acid/1.0 mol/L ammonium acetate/0.1 mol/L sodiumphosphate; 400/400/68/44/88/10) with a gradient of 0% B for 6 min, then 0→100% B in 10 min, 100% B for 0.5 min, 100→0% B in 1.5 min then 0% B for 2 min, delivered at a flow rate of 3 mL/min.

For data set [2] the following is noted: mouse, in vivo. The method, then: ^11C-choline, ^11C-D4-choline (˜18.5 MBq) and ^18F-D4-choline (˜3.7 MBq) were each injected via the tail vein of anaesthetized BALB/c nude mice. The mice were maintained under anesthesia and sacrificed by exsanguination via cardiac puncture at 2, 15, 30 or 60 min post radiotracer injection to obtain blood, plasma, heart, lung, liver, kidney and muscle. Tissue radioactivity was determined on a gamma counter (Cobra II Auto-Gamma counter, Packard Biosciences Co, Pangbourne, UK) and decay corrected. Data were expressed as percent injected dose per gram of tissue.
Time course biodistribution was performed in non-tumor-bearing male nude mice with ^11C-choline, ^11C-D4-choline and ^18F-D4-choline tracers.
This is another data set of the same source.

Data set [3] concerns prostate adenocarcinoma PC3-M tumors. Also noted: AUC: unit not given beside the values. The method, then:
Dynamic ^11C-choline, ^11C-D4-choline and ^18F-D4-choline imaging scans were carried out on a dedicated small animal PET scanner (Siemens Inveon PET module, Siemens Medical Solutions USA, Inc., Malvem, Pa., USA) following a bolus i.v. injection in tumor-bearing mice of either ˜3.7 MBq for ^18F studies, or ˜18.5 MBq for ^11C. Dynamic scans were acquired in list mode format over 60 min. The acquired data were then sorted into 0.5 mm sinogram bins and 19 time frames for image reconstruction (4×15 s, 4×60 s, and 11×300 s), which was done by filtered back projection. For input function analysis, data were sorted into 25 time frames for image reconstruction (8×5 s, 1×20 s, 4×40 s, 1×80 s, and 11×300 s). The Siemens Inveon Research Workplace software was used for visualization of radiotracer uptake in the tumor; 30 to 60 min cumulative images of the dynamic data were employed to define 3-dimensional (3D) regions of interest (ROIs). Arterial input function was estimated as follows: a single voxel 3D ROI was manually drawn in the center of the heart cavity using 2 to 5 min cumulative images. Care was taken to minimize ROI overlap with the myocardium. The count densities were averaged for all ROIs at each time point to obtain a time versus radioactivity curve (TAC). Tumor TACs were normalized to injected dose, measured by a VDC-304 dose calibrator (Veenstra Instruments, Joure, The Netherlands), and expressed as percentage injected dose per mL tissue. The area under the TAC, calculated as the integral of % ID/mL from 0-60 min, and the normalized uptake of radiotracer at 60 min (% ID/mL60) were also used for comparisons.
For PET imaging, tumors were grown to 100 mm^3 prior to imaging.
A 2-tissue irreversible compartmental model was employed to fit the TACs, as has been previously established for ^11C-choline (Kenny L M, Contractor K B, Hinz R, et al. Reproducibility of [11C]choline-positron emission tomography and effect of trastuzumab. Clin Cancer Res. Aug. 15 2010; 16(16):4236-4245; and Sutinen E, Nurmi M, Roivainen A, et al. Kinetics of [(11)C]choline uptake in prostate cancer: a PET study. Eur J Nucl Med Mol. Imaging. March 2004; 31(3):317-324). An estimate of the whole blood TAC (wbTAC(t)) was derived from the PET image itself, as described above. […] Therefore it was fitted with a sum of 3 exponentials from the peak on and the fitted function was used as input function in the kinetic modeling (after metabolite correction, see below). […] The pf values were fitted to a sum of two exponentials with the constraint pf(t=0)=1 to obtain the function pf(t). The parent whole blood TAC wbTACPAR(t) was then computed by multiplying wbTAC(t) and pf(t) and used as input function to estimate the parameters K1 (mL/cm^3/min), k2 (1/min), k3 (1/min) and Vb (unitless). The steady state net irreversible uptake rate constant Ki (mL/cm^3/min) was calculated from the estimated microparameters as K1k3/(k2+k3).

For data set [4] the following is noted: mouse, in vivo, iv.
Setting [5] is: PC3-M tumors, 2-tissue irreversible model.

With `[2H]C([2H])(O)C([2H])([2H])[N+](C)(C)C[18F]` [[^18F]D4-FCH, [^18F]fluoromethyl-[1,2-^2H4]-choline], in data set [1], the “kidney radioactivity as phosphocholine” value is 60.6±3.7%, the “kidney radioactivity in the form of betaine” value was determined as 20.6±6.2%, the “unknown metabolite (possibly the aldehyde intermediate) in liver” value is 7.4±2.3% and the “unknown metabolite in kidney” value was found to be 8.8±0.2%. Besides, the “form of radioactivity in tumors” value in data set [1] (iv) is “mainly in the form of phosphocholine”. Besides, in data set [2], the “increase in kidney retention compared to 11C-choline” value was 3.3 fold and the urinary excretion entry was “trend towards increased urinary excretion”. Also, in data set [3] (setting [5]), the “K1′” value amounted to 0.090 ± 0.007, the Ki came to 0.009 ± 0.002 mL/cm^3/min and the k3 is 0.040 ± 0.006 min⁻¹. Besides, in data set [3] (mouse, in vivo), the AUC came to 121.3 ± 3.1; the NUV60 was 1.97 ± 0.07 % ID/mL; the “increase in % ID/mLmax, smaller versus larger tumors” value stood at 1.4 fold; the “increase in normalized uptake at 60 min, smaller versus larger tumors” value was found to be 2.4 fold. The “time to maximal tumor-specific radioactivity” value in data set [3] (mouse, in vivo) is ≤ 5 min. Moreover, the “conversion to betaine metabolite in plasma” value in data set [4] was ~40%.
